The source of these data is patent US6358988B1, “Process and composition for the antiparasitic treatment of the surroundings of animals” (priority 1996, dated 2002).

In one assay the test system is adult Tenebrio molitor. In words: whole plant or invertebrate. Conditions: in Solanum tuberosum, 24 h. On the procedure:
Ten (10) gram pieces of potato were placed into individual jars. […] The acetone-surfactant solution comprised acetone. Triton® 152, and Triton® 172 mixed in volumetric ratio of about 785:1:3. […] Adult Tenebrio molitor and a strip of paper towel 1 cm by 3 cm were added to each jar. Mortality was rated at 1 day after treatment.
If the actually observed value is greater than the expected value […] then there is synergism.

In another assay the test system is fly larvae. As to conditions: 25 ppm of compound (A); surface of poultry dung and cow dung. On the procedure:
An application was carried out at the surface of poultry dung and of cow dung treated beforehand with fly larvae.

The subject of assay [1] is darkling beetles (Alphitobius diaperinus). Briefly: Poultry house litter treatment, darkling beetle population monitored with 9 traps. The format is in vivo. As to conditions: water-dispersible granules containing 80% of compound (A), 150 g/ha; during the 10th week (end of a rearing cycle). As to the method: The treatment took place on the clean litter before the poultry was installed therein. The clean litter was essentially composed of straw.
On the day after the treatment, a group of chicks aged 1 to 2 days was installed in the rearing house at the rate of approximately 7 animals per m^2.
The change in the population of darkling beetles (Alphitobius diaperinus) in the litter was regularly monitored using 9 homogeneously distributed traps. Measurements were carried out each week from the second week after the treatment until rearing was halted.
The total population of darkling beetles in the 9 traps of the treated poultry house varied between 11 and 96 until the 9th week after treatment whereas, in a similar but untreated poultry house, the population of darkling beetles (larvae and adults) oscillated between 1000 and 3000 at each counting point.

With `CNC(=O)Oc1cccc2ccccc12` [Carbaryl, 1-naphthyl methylcarbamate, reference compound], in the assay with adult Tenebrio molitor, the mortality at 6.25 ppm was 0%, the mortality at 25 ppm was 27%, the mortality at 100 ppm amounted to 80% and the mortality at 400 ppm worked out at 93%.
For the compound `N#Cc1nn(-c2c(Cl)cc(C(F)(F)F)cc2Cl)c(N)c1[S+]([O-])C(F)(F)F` (stereo not drawn) [compound (A), 1-[2,6-Cl2-4-CF3phenyl]-3-CN-4-[SO—CF3]-5-NH2pyrazole], the “inhibition of larval development of the flies (effectiveness with respect to untreated controls)” value with fly larvae was 100%. The “control of darkling beetles” value in assay [1] was determined as 86%.

By mortality is commonly meant the percentage killed.
